From US20200131176A1, “SELECTIVE INHIBITORS OF CLINICALLY IMPORTANT MUTANTS OF THE EGFR TYROSINE KINASE” (CS Pharmatech Limited, priority 2017, published 2020)
“And” between values parts separate entries of the source, which are not always exact repeats. Equal entries are not always repeated. Structures can show the parent of a compound that is named as a salt. Where two headings read alike, the source gives them in different places.

Assays:
H1975 cells = assay: H1975 inhibition assay (cell proliferation, CellTiter-Glo, 72 h); type: cell-based, human; details: Homo sapiens, NCI-H1975, 72 h, cellular proliferation, double mutant EGFR, read-out: NCI-H1975 IC50 (nM) DM
Mouse in vivo PK study [1] = details: male CD1 mice, 1 mg/kg IV; for F: 10 mg/kg PO; for AUC / clearance / half-life: mouse, plasma; for half-life: read-out: T1/2 (IV) (converted)
Experimental: To determine the drug concentration in plasma of the compounds of the present disclosure following intravenous and oral administration in male CD 1 Mice, pharmacokinetic profile and PK parameters were obtained.
Test animals: healthy male CD1 mice (body weight 20-30 g, 18 mice, free access to food and water), provided by Sibeifu laboratory. […]
Samples collection: the healthy animals were used, weighed the bodyweight and marked at tail and cage card prior to dosing. Blood samples (0.03 mL per time point) were collected from dorsal metatarsal vein at 0.083, 0.25, 0.5, 1, 2, 4, 8, 24 h post dose for IV group and at 0.25, 0.5, 1, 2, 4, 8, 24 h post dose for PO group, the terminal time point was collected from heart (˜0.3 mL). The blood samples were put into the tube with heparin-Na coated and then put on the cold box, centrifuged at 4° C. 4000 g, 5 minutes immediately after collecting all samples per time point to get plasma. The plasma samples were stored in a freezer at −75±15° C. prior to analysis.
The drug concentration was determined by LC/MS/MS method, and the PK parameters were observed as follows.

Mouse in vivo PK study [2] = details: mouse, plasma, male CD1 mice, 10 mg/kg PO; for half-life: read-out: T1/2 (PO) (converted)
PC-9 cells = assay: PC-9 growth inhibition assay (cell proliferation, CellTiter-Glo, 72 h); type: cell-based, human; details: Homo sapiens, PC-9, 72 h, cellular proliferation, PC9 cells, single mutant EGFR, read-out: PC9 IC50 (nM) SM
A431 cells = assay: A431 inhibition assay (cell proliferation, CellTiter-Glo, 72 h); type: cell-based, human; details: Homo sapiens, A-431, 72 h, cellular proliferation, wild type EGFR, read-out: A431 IC50 (nM) WT
[3] = target: T1, Exon 19 deletion EGFR (activating single mutant) in PC-9 cells (Homo sapiens, UniProt P00533, DEL746-750); assay: Exon 19 deletion EGFR PC-9 cellular autophosphorylation assay (p-EGFR ELISA); type: cell-based; details: PC9, 2 h treatment, read-out: SM (PC9) IC50
T1 construct: cellular phosphorylation of endogenous p-EGFR; host or cells: PC9 (PC-9) human lung cell line

[4] = target: T2, L858R/T790M double mutant EGFR in H1975 cells (Homo sapiens, UniProt P00533, L858R/T790M); assay: L858R/T790M double mutant H1975 autophosphorylation inhibition assay (ELISA); type: cell-based; details: cellular EGFR autophosphorylation, H1975, 2 h treatment; read-out: DM (H1975) IC50
T2 construct: endogenous in cells; host or cells: H1975 cells

[5] = target: hERG channel (HEK 293 cell line stably expressing hERG channel) (Homo sapiens, UniProt Q12809); assay: cell-based
[6] = target: Wild type EGFR in A431 cells (Homo sapiens, UniProt P00533); details: WT (A431) IC50 nM, cellular EGFR autophosphorylation, A431, 2 h treatment then EGF stimulation 10 min
Sequence of Wild type EGFR in A431 cells (P00533 25-1210): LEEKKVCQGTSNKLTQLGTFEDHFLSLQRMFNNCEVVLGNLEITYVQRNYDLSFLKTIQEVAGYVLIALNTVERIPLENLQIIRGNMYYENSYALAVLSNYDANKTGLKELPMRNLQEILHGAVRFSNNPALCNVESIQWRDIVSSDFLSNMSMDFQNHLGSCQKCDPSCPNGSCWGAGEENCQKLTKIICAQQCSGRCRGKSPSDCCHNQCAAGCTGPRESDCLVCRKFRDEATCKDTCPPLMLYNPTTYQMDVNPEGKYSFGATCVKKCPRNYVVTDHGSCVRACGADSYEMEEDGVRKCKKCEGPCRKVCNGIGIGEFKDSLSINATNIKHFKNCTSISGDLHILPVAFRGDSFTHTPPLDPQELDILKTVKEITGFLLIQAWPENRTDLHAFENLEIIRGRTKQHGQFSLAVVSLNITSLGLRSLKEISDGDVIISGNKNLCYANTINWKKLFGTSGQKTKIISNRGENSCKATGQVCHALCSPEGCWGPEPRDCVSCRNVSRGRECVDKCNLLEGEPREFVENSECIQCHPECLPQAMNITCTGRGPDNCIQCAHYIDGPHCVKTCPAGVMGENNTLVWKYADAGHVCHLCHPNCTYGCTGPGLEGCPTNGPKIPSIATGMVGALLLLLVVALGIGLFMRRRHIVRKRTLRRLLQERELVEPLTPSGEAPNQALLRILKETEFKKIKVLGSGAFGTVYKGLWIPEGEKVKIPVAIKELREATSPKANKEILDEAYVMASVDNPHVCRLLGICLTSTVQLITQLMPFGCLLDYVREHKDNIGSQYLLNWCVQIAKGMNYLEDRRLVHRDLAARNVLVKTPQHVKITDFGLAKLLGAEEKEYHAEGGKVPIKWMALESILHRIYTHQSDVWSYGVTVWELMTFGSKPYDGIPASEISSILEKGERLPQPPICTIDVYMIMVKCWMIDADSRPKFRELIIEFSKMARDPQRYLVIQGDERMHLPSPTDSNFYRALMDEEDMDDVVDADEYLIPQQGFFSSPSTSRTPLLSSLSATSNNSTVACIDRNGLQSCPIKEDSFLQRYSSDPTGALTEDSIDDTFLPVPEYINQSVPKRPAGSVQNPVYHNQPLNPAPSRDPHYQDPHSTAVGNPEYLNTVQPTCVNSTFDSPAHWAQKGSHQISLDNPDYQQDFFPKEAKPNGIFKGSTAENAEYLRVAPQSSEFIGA

Sequence of hERG channel (HEK 293 cell line stably expressing hERG channel) (Q12809 whole entry): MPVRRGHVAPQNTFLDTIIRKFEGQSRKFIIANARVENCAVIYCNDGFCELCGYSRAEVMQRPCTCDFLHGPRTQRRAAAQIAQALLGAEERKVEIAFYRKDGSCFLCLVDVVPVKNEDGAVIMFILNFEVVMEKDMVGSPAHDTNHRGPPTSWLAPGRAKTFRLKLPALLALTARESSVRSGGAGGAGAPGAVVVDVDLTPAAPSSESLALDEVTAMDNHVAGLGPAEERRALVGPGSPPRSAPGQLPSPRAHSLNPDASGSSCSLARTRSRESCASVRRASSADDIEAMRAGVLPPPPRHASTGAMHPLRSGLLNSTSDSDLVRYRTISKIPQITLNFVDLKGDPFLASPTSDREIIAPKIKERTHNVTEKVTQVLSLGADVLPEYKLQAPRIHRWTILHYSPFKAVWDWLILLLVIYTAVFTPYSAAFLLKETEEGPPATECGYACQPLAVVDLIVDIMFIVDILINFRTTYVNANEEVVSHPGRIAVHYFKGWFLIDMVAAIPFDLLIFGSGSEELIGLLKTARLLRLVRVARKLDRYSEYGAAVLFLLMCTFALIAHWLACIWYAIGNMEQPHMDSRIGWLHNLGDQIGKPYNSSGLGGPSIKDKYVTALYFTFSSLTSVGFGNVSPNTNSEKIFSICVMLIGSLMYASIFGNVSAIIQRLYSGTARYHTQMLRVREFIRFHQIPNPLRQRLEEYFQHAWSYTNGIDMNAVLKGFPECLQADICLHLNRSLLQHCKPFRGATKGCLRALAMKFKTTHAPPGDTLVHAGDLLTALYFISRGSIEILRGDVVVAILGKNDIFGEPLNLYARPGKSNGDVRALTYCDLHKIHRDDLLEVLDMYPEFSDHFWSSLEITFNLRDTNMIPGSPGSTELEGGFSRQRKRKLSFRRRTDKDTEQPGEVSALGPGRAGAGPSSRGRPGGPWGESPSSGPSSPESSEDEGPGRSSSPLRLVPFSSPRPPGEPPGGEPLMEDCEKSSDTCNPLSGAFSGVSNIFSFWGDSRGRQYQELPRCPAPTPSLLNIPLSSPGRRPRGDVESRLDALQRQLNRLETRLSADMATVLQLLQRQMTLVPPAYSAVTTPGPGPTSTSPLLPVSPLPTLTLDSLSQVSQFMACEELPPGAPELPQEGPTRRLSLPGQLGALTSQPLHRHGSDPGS
T2 sequence (P00533 25-1210 T790M/L858R): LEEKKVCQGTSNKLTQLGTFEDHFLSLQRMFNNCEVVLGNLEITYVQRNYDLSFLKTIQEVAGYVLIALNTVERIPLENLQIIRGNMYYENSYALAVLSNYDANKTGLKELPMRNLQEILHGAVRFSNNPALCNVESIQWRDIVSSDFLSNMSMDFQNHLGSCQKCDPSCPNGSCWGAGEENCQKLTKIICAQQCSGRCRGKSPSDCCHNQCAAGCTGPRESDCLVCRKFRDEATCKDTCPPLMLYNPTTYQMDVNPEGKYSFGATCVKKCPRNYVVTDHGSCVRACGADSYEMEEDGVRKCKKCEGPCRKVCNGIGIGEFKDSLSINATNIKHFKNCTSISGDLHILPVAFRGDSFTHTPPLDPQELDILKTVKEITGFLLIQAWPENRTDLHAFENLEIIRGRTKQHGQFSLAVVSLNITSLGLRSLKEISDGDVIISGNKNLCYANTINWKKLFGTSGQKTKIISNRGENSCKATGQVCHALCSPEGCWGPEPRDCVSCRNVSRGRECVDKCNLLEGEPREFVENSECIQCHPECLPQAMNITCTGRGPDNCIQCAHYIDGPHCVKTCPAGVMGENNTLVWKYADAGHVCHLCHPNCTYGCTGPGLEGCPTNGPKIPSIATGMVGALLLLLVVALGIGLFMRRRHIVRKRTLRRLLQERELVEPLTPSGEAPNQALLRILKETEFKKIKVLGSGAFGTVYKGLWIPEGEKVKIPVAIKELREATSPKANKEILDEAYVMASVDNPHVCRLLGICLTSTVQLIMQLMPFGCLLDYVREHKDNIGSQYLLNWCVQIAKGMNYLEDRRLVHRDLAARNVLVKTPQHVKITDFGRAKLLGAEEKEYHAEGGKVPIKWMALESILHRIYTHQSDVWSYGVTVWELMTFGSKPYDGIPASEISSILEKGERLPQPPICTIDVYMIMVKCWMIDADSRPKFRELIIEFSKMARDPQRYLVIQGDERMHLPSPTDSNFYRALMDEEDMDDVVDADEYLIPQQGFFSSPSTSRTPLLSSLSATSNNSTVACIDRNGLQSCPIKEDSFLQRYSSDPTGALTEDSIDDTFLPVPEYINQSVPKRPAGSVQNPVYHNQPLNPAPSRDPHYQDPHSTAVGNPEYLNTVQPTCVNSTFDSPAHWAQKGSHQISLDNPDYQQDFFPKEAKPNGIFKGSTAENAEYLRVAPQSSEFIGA
T1 sequence (P00533 with tags, fused parts or gaps DEL746-750): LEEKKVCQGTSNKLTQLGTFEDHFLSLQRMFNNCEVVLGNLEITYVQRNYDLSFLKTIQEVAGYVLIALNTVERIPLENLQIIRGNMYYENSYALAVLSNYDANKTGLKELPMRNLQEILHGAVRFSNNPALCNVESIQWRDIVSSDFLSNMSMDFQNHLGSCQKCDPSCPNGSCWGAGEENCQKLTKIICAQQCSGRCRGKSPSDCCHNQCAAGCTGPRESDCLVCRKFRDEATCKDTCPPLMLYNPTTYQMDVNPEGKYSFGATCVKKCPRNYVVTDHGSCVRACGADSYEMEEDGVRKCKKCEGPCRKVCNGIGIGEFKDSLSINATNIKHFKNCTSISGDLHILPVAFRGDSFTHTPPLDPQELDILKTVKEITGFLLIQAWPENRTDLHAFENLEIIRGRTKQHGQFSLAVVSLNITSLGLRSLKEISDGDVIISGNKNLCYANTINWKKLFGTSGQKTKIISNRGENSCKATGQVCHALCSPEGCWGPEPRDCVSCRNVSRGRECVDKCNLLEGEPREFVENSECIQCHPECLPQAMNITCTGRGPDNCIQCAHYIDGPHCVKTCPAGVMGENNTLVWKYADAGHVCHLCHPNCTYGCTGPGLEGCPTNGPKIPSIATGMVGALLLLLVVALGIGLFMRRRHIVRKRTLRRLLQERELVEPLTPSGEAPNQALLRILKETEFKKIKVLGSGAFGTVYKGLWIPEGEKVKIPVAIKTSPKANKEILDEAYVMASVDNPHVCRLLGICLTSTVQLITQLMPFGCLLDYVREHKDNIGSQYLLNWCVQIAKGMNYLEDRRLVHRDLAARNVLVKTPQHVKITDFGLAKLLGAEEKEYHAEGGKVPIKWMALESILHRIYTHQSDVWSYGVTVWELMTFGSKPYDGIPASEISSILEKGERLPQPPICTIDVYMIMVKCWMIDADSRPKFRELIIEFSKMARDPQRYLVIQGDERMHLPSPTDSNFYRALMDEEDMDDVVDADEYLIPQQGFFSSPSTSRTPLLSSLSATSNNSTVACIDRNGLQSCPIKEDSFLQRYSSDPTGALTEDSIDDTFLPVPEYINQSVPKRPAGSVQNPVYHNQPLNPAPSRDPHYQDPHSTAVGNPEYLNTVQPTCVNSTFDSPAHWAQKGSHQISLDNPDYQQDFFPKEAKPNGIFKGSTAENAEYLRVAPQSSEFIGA

SMILES | IC50 (H1975 cells) [nM] | F (Mouse in vivo PK study [1]) [%] | AUC (Mouse in vivo PK study [1]) [ng·h/mL] | clearance (Mouse in vivo PK study [1]) [mL/min/kg] | half-life (Mouse in vivo PK study [1]) [h] | AUC (Mouse in vivo PK study [2]) [ng·h/mL] | Cmax (Mouse in vivo PK study [2]) [ng/mL] | half-life (Mouse in vivo PK study [2]) [h] | IC50 (PC-9 cells) [nM] | IC50 (A431 cells) [nM] | IC50 [3] | IC50 [4] | IC50 [6] | IC50 [5] [nM]
C=CC(=O)Nc1cc(Nc2nccc(-n3nc(OC)c4ccccc43)n2)c(OC)cc1N(C)CCN(C)C [Example 8, N-(2-((2-(Dimethylamino)ethyl)(methyl)amino)-4-methoxy-5-((4-(3-methoxy-1H-indazol-1-yl)pyrimidin-2-yl)amino)phenyl)acrylamide] | 11.6 |  |  |  |  |  |  |  | 18.6 | 1800 | 27.6 nM and 29.4 nM | 20.7 nM and 38.8 nM | 327 nM and 464 nM | 2230
C=CC(=O)Nc1cc(Nc2nccc(-c3cnc4c(c3)c(C)cn4C)n2)c(OC)cc1N(C)CCN(C)C [Example 11, N-(5-((4-(1,3-Dimethyl-1H-pyrrolo[2,3-b]pyridin-5-yl)pyrimidin-2-yl)amino)-2-((2-(dimethylamino)ethyl)(methyl)amino)-4-methoxyphenyl) acrylamide] | 6.51 | 29.3 | 153 | 114 | 1.1 | 641 | 97 | 5.06 | 7.73 | 2530 |  |  |  | 5780
C=CC(=O)Nc1cc(Nc2nccc(-n3nc(N(C)C)c4cnc(C)cc43)n2)c(OC)cc1N(C)CCN(C)C [Example 1, N-(5-((4-(3-(Dimethylamino)-6-methyl-1H-pyrazolo[4,3-c]pyridin-1-yl)pyrimidin-2-yl)amino)-2-((2-(dimethylamino)ethyl)(methyl)amino)-4-methoxyphenyl)acrylamide] | 11.4 |  |  |  |  |  |  |  | 9.24 | 2140 |  |  |  | 
C=CC(=O)Nc1cc(Nc2nccc(-c3cccc4c3cnn4C)n2)c(OC)cc1N(C)CCN(C)C [Example 10, N-(2-((2-(Dimethylamino)ethyl)(methyl)amino)-4-methoxy-5-((4-(1-methyl-1H-indazol-4-yl)pyrimidin-2-yl)amino)phenyl)acrylamide] | 12.7 |  |  |  |  |  |  |  | 16.5 | 695 |  |  |  | 
C=CC(=O)Nc1cc(Nc2nccc(-c3cc4c(C)c[nH]c4c(C#N)n3)n2)c(OC)cc1N(C)CCN(C)C [Example 3, N-(5-((4-(7-Cyano-3-methyl-1H-pyrrolo[2,3-c]pyridin-5-yl)pyrimidin-2-yl)amino)-2-((2-(dimethylamino)ethyl)(methyl)amino)-4-methoxyphenyl)acryl amide] | 4.38 |  |  |  |  |  |  |  | 4.15 | 1380 | 5.15 nM | 2.16 nM | 63.1 nM | 858
C=CC(=O)Nc1cc(Nc2nccc(-c3ccc4c(c3)c(C)cn4C)n2)c(OC)cc1N(C)CCN(C)C [Example 12, N-(5-((4-(1,3-Dimethyl-1H-indol-5-yl)pyrimidin-2-yl)amino)-2-((2-(dimethylamino)ethyl)(methyl)amino)-4-methoxyphenyl)acrylamide] | 16.8 |  |  |  |  |  |  |  | 19.1 | 2430 | 11.8 nM | 7.73 nM | 63.6 nM | 4080
C=CC(=O)Nc1cc(Nc2nccc(-c3cc(C#N)cc4c3cnn4C)n2)c(OC)cc1N(C)CCN(C)C [Example 9, N-(5-((4-(6-Cyano-1-methyl-1H-indazol-4-yl)pyrimidin-2-yl)amino)-2-((2-(dimethylamino)ethyl)(methyl)amino)-4-methoxyphenyl)acrylamide] | 3.05 | 23.1 | 249 | 67 | 0.53 | 719 | 159 | 3.55 | 7.67 | 2200 | 10.8 nM | 5.71 nM | 140 nM | 1010
C=CC(=O)Nc1cc(Nc2nccc(-c3cnc4c(c3)c(Cl)cn4C)n2)c(OC)cc1N(C)CCN(C)C [Example 13, N-(5-((4-(3-Chloro-1-methyl-1H-pyrrolo[2,3-b]pyridin-5-yl)pyrimidin-2-yl)amino)-2-((2-(dimethylamino)ethyl)(methyl)amino)-4-methoxyphenyl)acrylamide] | 2.98 | 17.3 | 169 | 99 | 1.52 | 486 | 63.5 | 6.1 | 4.64 |  |  |  |  | 1650
C=CC(=O)Nc1cc(Nc2nccc(-n3nc(NCC)c4ncccc43)n2)c(OC(F)F)cc1N(C)CCN(C)C [Example 20, N-(4-(Difluoromethoxy)-2-((2-(dimethylamino)ethyl)(methyl)amino)-5-((4-(3-(ethylamino)-1H-pyrazolo[4,3-b]pyridin-1-yl)pyrimidin-2-yl)amino)phenyl)acrylamide] | 1.08 |  |  |  |  |  |  |  | 0.91 | 97.6 | 1.38 nM | 1.07 nM | 19 nM | 500
C=CC(=O)Nc1cc(Nc2nccc(-n3nc(NC)c4ccsc43)n2)c(OC)cc1N(C)CCN(C)C [Example 23, N-(2-((2-(dimethylamino)ethyl)(methyl)amino)-4-methoxy-5-((4-(3-(methylamino)-1H-thieno[2,3-c]pyrazol-1-yl)pyrimidin-2-yl)amino)phenyl)acrylamide] | 7.35 |  |  |  |  |  |  |  | 3.87 | 566 |  |  |  | 

Continued, in another order:

IC50 (H1975 cells) [nM] | F (Mouse in vivo PK study [1]) [%] | AUC (Mouse in vivo PK study [1]) [ng·h/mL] | clearance (Mouse in vivo PK study [1]) [mL/min/kg] | half-life (Mouse in vivo PK study [1]) [h] | AUC (Mouse in vivo PK study [2]) [ng·h/mL] | Cmax (Mouse in vivo PK study [2]) [ng/mL] | half-life (Mouse in vivo PK study [2]) [h] | IC50 (PC-9 cells) [nM] | IC50 (A431 cells) [nM] | IC50 [3] | IC50 [4] | IC50 [6] | SMILES | IC50 [5] [nM]
2.26 | 31.4 | 297 | 60.7 | 1.76 | 1040 | 99 | 3.65 |  |  |  |  |  | [2H]C([2H])([2H])N(CCN(C)c1cc(OC)c(Nc2nccc(-c3cc(C#N)c4c(c3)c(C)cn4C)n2)cc1NC(=O)C=C)C([2H])([2H])[2H] [Example 27, N-(2-((2-(Bis(methyl-d3)amino)ethyl)(methyl)amino)-5-((4-(7-cyano-1,3-dimethyl-1H-indol-5-yl)pyrimidin-2-yl)amino)-4-methoxyphenyl)acrylamide mesylate] | 
2.43 |  |  |  |  |  |  |  | 1.57 | 217 |  |  |  | C=CC(=O)Nc1cc(Nc2nccc(-n3nc(NC)c4cc(Cl)sc43)n2)c(OC)cc1N(C)CCN(C)C [Example 24, N-(5-((4-(5-chloro-3-(methylamino)-1H-thieno[2,3-c]pyrazol-1-yl)pyrimidin-2-yl)amino)-2-((2-(dimethylamino)ethyl)(methyl)amino)-4-methoxyphenyl)acrylamide] | 
23.6 |  |  |  |  |  |  |  | 51.9 | 1370 |  |  |  | C=CC(=O)Nc1cc(Nc2nccc(-c3cc(C#N)c4c(c3)c(C)cn4C)n2)c(OC)cc1N(C)CCNC [Example 29, N-(5-((4-(7-Cyano-1,3-dimethyl-1H-indol-5-yl)pyrimidin-2-yl)amino)-4-methoxy-2-(methyl(2-(methylamino)ethyl)amino)phenyl)acrylamide] | 
13.6 |  |  |  |  |  |  |  | 81.4 | 912 |  |  |  | C=CC(=O)Nc1cc(Nc2nccc(-c3cc(C#N)c4c(c3)c(C)cn4C)n2)c(OC)cc1NCCN(C)C [Example 28, N-(5-((4-(7-cyano-1,3-dimethyl-1H-indol-5-yl)pyrimidin-2-yl)amino)-2-((2-(dimethylamino)ethyl)amino)-4-methoxyphenyl)acrylamide] | 
12.6 |  |  |  |  |  |  |  | 16.2 | 1130 |  |  |  | C=CC(=O)Nc1cc(Nc2nccc(-c3cccc4c3ccn4C)n2)c(OC)cc1N(C)CCN(C)C [Example 25, N-(2-((2-(dimethylamino)ethyl)(methyl)amino)-4-methoxy-5-((4-(1-methyl-1H-indol-4-yl)pyrimidin-2-yl)amino)phenyl)acrylamide] | 
